Results taken from patent US20110184017A1, “STABLE AQUEOUS SOLUTION COMPOSITION CONTAINING SULFONAMIDE COMPOUND” (ASAHI KASEI PHARMA CORPORATION, priority 2008, published 2011).
“Also recorded” adds a separate entry of the source.

Columns and labels:
[1] = system: Japanese white rabbits; assay: Rabbit intraocular pressure reduction test; type: in vivo; conditions: FIG. 1
Method: In order to examine difference in the intraocular pressure reducing effect depending on a different pH of (S)-1-(4-chloro-5-isoquinolinesulfonyl)-3-(methylamino)pyrrolidine solution, the following test was performed by using Japanese white rabbits as experimental animals.
(S)-1-(4-Chloro-5-isoquinolinesulfonyl)-3-(methylamino)pyrrolidine hydrochloride obtained by the method described in International Patent Publication WO2007/026664 was dissolved in physiological saline, the solution was adjusted to pH 4, 5, 6, 7, 8 and 9 by adding sodium hydroxide, and the final concentration was adjusted to 0.5 mM. These solutions were used as (S)-1-(4-chloro-5-isoquinolinesulfonyl)-3-(methylamino)pyrrolidine solutions having different pH values.
The rabbits used were sufficiently conditioned for ophathalmic tonometry test, and used as groups each consisting of 6 animals. After a Benoxil ophthalmic solution 0.4% (an ophthalmologic local anesthesant, Santen Pharmaceutical Co., Ltd.) was applied to both eyes of each rabbit, intraocular pressure value before instillation was measured (initial intraocular pressure value, both right and left eyes) by using an ophathalmic tonometer (Model 30 Classic, Solan). […] After 2, 4, and 6 hours from the instillation, each rabbit was topically anesthetized with the an ophthalmologic local anesthesant, and intraocular pressure values of the both eyes were measured. […]

[2] = Photostability test; type: physicochemical; conditions: aqueous solution; estimated from similar absorption spectrum
Method: In the following test, LT-120D3CJ (Nagano Science Co., Ltd.) was used as a photostability tester. Purity of (S)-1-(4-chloro-5-isoquinolinesulfonyl)-3-(methylamino)pyrrolidine in the samples of the examples and the comparative example was measured by the liquid chromatography method described in Test Example 2.
The samples of Example 5 and Comparative Example 3 were subjected to light irradiation at 5,000 lux for ten days […] at 25° C. by using a D65 daylight fluorescent lamp installed in the photostability tester. As the photostability tester, an apparatus was used that was capable of uniformly irradiating the samples with light by turning a table. The illumination was 5,000 lux, and 1,200,000 lux·hr in total was irradiated over ten days. The accumulated near-ultraviolet energy during the photostability test was 474 to 488 W·h/m^2.
2) Purities of (S)-1-(4-chloro-5-isoquinolinesulfonyl)-3-(methylamino)pyrrolidine in the solutions of the light-irradiated samples were compared with that of a sample stored at 5° C. in a dark place.

CN[C@H]1CCN(S(=O)(=O)c2cccc3cncc(Cl)c23)C1 [(S)-1-(4-chloro-5-isoquinolinesulfonyl)-3-(methylamino)pyrrolidine]
intraocular pressure reducing action ([1]; 0.5 mM solutions adjusted to pH 4, 5, 6, 7, 8 and 9, instillation to normal rabbits, 2, 4 and 6 hours): more strongly exhibited when a pH became higher in the range of pH 4 to 9; also recorded: became higher in a pH-dependent manner | intraocular pressure reducing action ([1]; 0.5 mM solutions at pH 7 to 9, instillation to rabbits): strongly exhibited

N[C@H]1CCN(S(=O)(=O)c2cccc3cncc(Cl)c23)C1 [(S)-1-(4-chloro-5-isoquinolinesulfonyl)-3-aminopyrrolidine]
photostability properties compared with the (methylamino)pyrrolidine compound [2]: similar
